Laboratory results taken from paper PMC7754465, “Multiparameter Kinetic Analysis for Covalent Fragment Optimization by Using Quantitative Irreversible Tethering (qIT)” (Chembiochem, 2020).
Read-outs that look alike come from different tables or passages of the source.

Target: T1, Cdk2(ES) = Cdk2(F80C,C177A) (Homo sapiens, UniProt P24941, C177A/F80C)
T1 construct: GST (N, cleaved yes); made in house; host or cells: E. coli Tuner(DE3)
Assay: quantitative irreversible tethering (qIT): rate of cysteine modification of Cdk2(ES)
Format: binding
Conditions: for rate enhancement factor (REF): rate with Cdk2(ES) relative to rate with GSH, thiol 5 μM
Description: Figure 2 Comparison of previous and current applications of Quantitative irreversible tethering (qIT). a) Overview of rate determination. A cysteine‐containing biomolecule is treated with covalent fragments under pseudo‐first‐order conditions. Reaction progress is followed by discrete measurement of free cysteine concentration by using the fluorogenic probe CPM, and rate constants (k obs) are derived from exponential regression analysis. b) Comparison of the reactivity profile of each fragment with the POI and GSH typically classes them as unreactive, reactive but non‐selective or reactive and selective. c) Quantification of kinetic POI/GSH selectivity facilitates hit identification. d) The observed rate of reaction between the POI and hit fragment is determined at a range of ligand concentrations by using qIT. Subsequent hyperbolic regression analysis is used to derive K i and k inact to facilitate comprehensive covSAR analysis.
Therefore, we set out to develop novel classes of electrophile sensitive kinase inhibitors using a covalent fragment approach. Accordingly, we screened a 138‐member library of diverse cysteine‐reactive fragments at 500 μM against Cdk2(ES) and GSH by using the qIT platform and monitored the kinetics of cysteine‐modification over 24 hours. […] Using three standard deviations over the geometric mean REF as the statistical cut‐off for defining hit fragments (REF >27.9) yielded two acrylamide fragments, tetrahydroquinoline 1 (REF=81) and pyrimidine S1 (REF=64) for further investigation (Figures 3c and S2). […]
D. Rate determination by qIT
Reaction-plate setup: Each well of a 96-well PCR plate was charged with 60–100 µL of target thiol (GSH or protein, 10 µM) and 4% w/v TCEP-agarose beads in 100 mM phosphate buffer (pH 7.5 or 8) and cooled to 4 °C. Reactions were started by addition of an equal volume of pre-cooled electrophile solution (1 mM, 2% DMSO) in 0.1 M phosphate buffer (final concentra-tion: thiol = 5 µM, electrophile = 0.5 mM, 2% w/v TCEP-agarose beads), with a minimum of 4 wells per plate used as DMSO/thiol only controls. After mixing, TCEP-agarose was pelleted by centrifugation (1,300 rpm, 1 min) and the plate incu-bated at 4 °C. CPM Quench: At a series of time points (typically around 0.25, 0.5, 1, 2, 6, 24, 48, 72 and 120 hours after reac-tion initiation), 3 µL aliquots of each reaction were quenched into a 384-well fluorescence plate (Corning – black, NBS) where each well was charged with 27 µL of CPM solution (1.39 µM) in 100 mM phosphate buffer (pH 7.5) (final concentration: thiol = 0.5 µM, CPM = 1.25 µM). Quenching was typically performed in duplicate and fluorescence plates were incubated at room temperature for 60 minutes before fluorescence intensity (excitation/emission: 384/470 nm) was measured on an EnVisionTM plate reader. Analysis: All analysis was performed using Prism 8.0 software (GraphPad). For each time point, the fluorescence of each reaction was normalized relative Cdk2(ES)/GSH only control = maximum signal, DMSO only = minimum signal. The normalized fluorescence for each reaction was plotted against time. A one phase exponential decay was fitted to each plot (Constraints: Y(0) > 0.8; 0 < plateau = 0), yielding a pseudo first-order rate constant.
Cdk2 mutations were introduced by PCR and cloned into pGEX6P1 Cdk2 (552), a gift from Jonathon Pines (Addgene plasmid # 61845) used to express GST-Cdk2(WT). GST-Cdk2(ES) = GST-Cdk2(F80C,C177A). All constructs were verified by se-quencing. pGEX6P1 cyclin A2 (amino acids 173-432) was generated by PCR and restriction digestion. GST-CAK1 was con-structed by PCR amplification of S.cerevisiae genomic DNA and the product cloned into pKEG-KG. All protein expression was performed using an adapted autoinduction protocol:[8] Plasmids were transformed into E. coli Tuner(DE3) and cultures grown in autoinduction media at 37 °C until OD600 = 0.9. The cultures were then incubated at 18 °C for a further 40 hours before […]

[1] = fragment 0.5 mM, Cdk2(ES) 5 μM, read-out: Cdk2(ES): kobs/[I]

Row | kinact/KI at 500 µM [1] [M⁻¹ s⁻¹] | kinact/KI at 500 µM (Cdk2(ES) (5 μM) + 6 (500 μM), Figure 6c, read-out: kobs/[I] with Cdk2(ES)) [M⁻¹ s⁻¹] | covalent SAR by REF-based qIT analysis (compared with acrylamide 1 or parent analogue) | rate of reaction with Cdk2(ES) relative to acrylamide 1 (qIT) | SMILES | rate enhancement factor (REF) (fragment 0.5 mM)
1 |  |  |  |  | C=CC(=O)Nc1ccc(-c2ncccn2)cc1 [S1] | 64
2 | 1.31 |  |  |  | C=CC(=O)N1CCCc2cc(C(=O)OC)ccc21 [compound 1] | 81
3 | 0.1 | 0.105 | maintained a similar REF | ten times more slowly than acrylamide 1 | C=CC(=O)N1CCN(CC)c2ccccc21 [compound 6] | 
